Test results: PubChem BioAssay (NCI)
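These data come from cells grown in 96-well plates and exposed to compound for 48 hours at five concentrations. Abbreviation: GI50, concentration required for 50% inhibition of growth. TGI denotes the concentration required for complete inhibition of growth.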

Assays:
Assay in all cases: growth of human tumour cells (NCI), 48 h
BT-549 breast = system: BT-549 breast
HOP-62 NSCLC = system: HOP-62 NSCLC
HOP-92 NSCLC = system: HOP-92 NSCLC
IGROV1 ovarian = system: IGROV1 ovarian
KM12 colon = system: KM12 colon
MDA-MB-231 breast = system: MDA-MB-231 breast
NCI/ADR-RES ovarian = system: NCI/ADR-RES ovarian
OVCAR-3 ovarian = system: OVCAR-3 ovarian
SF-295 CNS = system: SF-295 CNS
TK-10 renal = system: TK-10 renal

CCN(CC)CC.CCOc1ccc(NC(=O)N=C=[N-])cc1.[CH-]1CCCCC1.[CH-]1CCCCC1.[CH-]1CCCCC1.[Cl-].[Sn+4]
GI50 (BT-549 breast): 149 nM
TGI (BT-549 breast): 0.292 µM
GI50 (HOP-62 NSCLC): 122 nM
TGI (HOP-62 NSCLC): 0.234 µM
GI50 (HOP-92 NSCLC): 26.4 nM
TGI (HOP-92 NSCLC): 0.111 µM
GI50 (IGROV1 ovarian): 34.2 nM
TGI (IGROV1 ovarian): 0.115 µM
GI50 (KM12 colon): 16.1 nM
TGI (KM12 colon): 0.0429 µM
GI50 (MDA-MB-231 breast): 103 nM
TGI (MDA-MB-231 breast): 0.25 µM
GI50 (NCI/ADR-RES ovarian): 22.1 nM
TGI (NCI/ADR-RES ovarian): 0.0559 µM
GI50 (OVCAR-3 ovarian): 17.1 nM
TGI (OVCAR-3 ovarian): 0.038 µM
GI50 (SF-295 CNS): 52.1 nM
TGI (SF-295 CNS): 0.149 µM
GI50 (TK-10 renal): 45.8 nM
TGI (TK-10 renal): 0.116 µM

CC1=CC(=O)CC(C)(C)C1(O)/C=C/C(C)=C/C(=O)O (stereo not given)
TGI (BT-549 breast): > 100 µM
TGI (HOP-62 NSCLC): > 100 µM
TGI (HOP-92 NSCLC): > 100 µM
TGI (IGROV1 ovarian): > 100 µM
TGI (KM12 colon): > 100 µM
TGI (MDA-MB-231 breast): > 100 µM
TGI (NCI/ADR-RES ovarian): > 100 µM
TGI (OVCAR-3 ovarian): > 100 µM
TGI (SF-295 CNS): > 100 µM
TGI (TK-10 renal): > 100 µM

C[C@H]1CC[C@H]([C@@H](C)[C@H]2[C@@H](O)C[C@H]3[C@@H]4CC[C@H]5C[C@@H](O)CC[C@]5(C)[C@H]4CC[C@]23C)NC1
TGI (BT-549 breast): 32.5 µM
TGI (HOP-62 NSCLC): 58.1 µM
TGI (HOP-92 NSCLC): 33.7 µM
TGI (IGROV1 ovarian): 35.4 µM
TGI (KM12 colon): 30.2 µM
TGI (MDA-MB-231 breast): 47.9 µM
TGI (NCI/ADR-RES ovarian): 32.6 µM
TGI (OVCAR-3 ovarian): 39.8 µM
TGI (SF-295 CNS): 39.2 µM
TGI (TK-10 renal): 38.1 µM
